The text below walks through data of ChEMBL document CHEMBL5338751, “Discovery of the First-in-Class Intestinal Restricted FXR and FABP1 Dual Modulator ZLY28 for the Treatment of Nonalcoholic Fatty Liver Disease” (J Med Chem, 2023).

Active and inactive are the calls of the source. No cut-off for these calls is given here.

Series [1] is described as follows: Subacute toxicity in ICR mouse assessed as reduction in serum TBIL level at 500 mg/kg/day, po administered for 14 days. In kind it is organism-based. Conditions: in vivo, 336 h, time 14 day.
Series [2] can be described thus: Subacute toxicity in ICR mouse assessed as changes in serum AST level at 500 mg/kg/day, po administered for 14 days. In kind it is organism-based. Conditions: in vivo, 336 h, time 14 day.
For series [3], the system named is Mus musculus. Briefly: Anti-NASH activity in western diet and CCl4-induced nonalcoholic steatohepatitis C57BL/6 mouse assessed as reduction in IL6 level at 20 mg/kg, po administered for 12 weeks starting from week 8 and change in dose for every 5 days by ELISA. It counts as functional, organism-based. Conditions: time 4.0 weeks. In general terms: In an ELISA, binding on a coated surface is turned into a signal by an enzyme label.

The target of series [4] is Free fatty acid receptor 1 (Homo sapiens, UniProt O14842). Briefly: Agonist activity at human FFA1 stably expressed in CHO cells assessed as intracellular calcium flux by FLIPR assay. In kind it is functional, cell-based. On the technique in general: Calcium assays in cells follow changes in intracellular calcium, usually with a dye or a luminescent sensor.
The nature of series [5]: Inhibition of PPARbeta/delta (unknown origin) transfected in HepG2 cells incubated for 18 hrs in presence of GW0742 by dual luciferase reporter assay. The settings on record: Homo sapiens, HepG2, 18 h. A general note: A reporter such as luciferase makes a cellular process visible.
The nature of series [6]: Activation of Gal-DBD and NHRLBD fused RXRalpha (unknown origin) transfected in African green monkey CV-1 cells by luciferase reporter assay. It counts as cell-based. Conditions: Homo sapiens.
Series [7] in a line: Metabolic stability in rhesus monkey liver microsomes assessed as parent compound remaining incubated for 1 hr by LC-MS analysis. The settings on record: read-out: Stability. It counts as ADME, Macaca mulatta, Microsome.
Series [8] concerns the target Fatty acid-binding protein, adipocyte (Homo sapiens, UniProt P15090). Nature of the series: Displacement of 8-anilino-1-naphthalene-sulfonic acid from FABP4 (unknown origin) incubated for 3 mins by fluorescence based assay.
Series [9] in a line: Metabolic stability in human liver microsomes assessed as parent compound remaining incubated for 1 hr by LC-MS analysis. In kind it is ADME, Microsome. Conditions: read-out: Stability.
For another series, the target named is Estrogen receptor (Homo sapiens, UniProt P03372). Briefly: Activation of Gal-DBD and NHRLBD fused ERalpha (unknown origin) transfected in African green monkey CV-1 cells by luciferase reporter assay. It counts as cell-based.
The nature of series [10]: Subacute toxicity in ICR mouse assessed as changes in animal growth at 500 mg/kg/day, po administered for 14 days. In kind it is organism-based. Conditions: in vivo, 336 h, time 14 day.
Series [11] can be described thus: Subacute toxicity in ICR mouse assessed as changes in serum BUN level at 500 mg/kg/day, po administered for 14 days. It counts as organism-based. The settings on record: in vivo, 336 h, time 14 day.
Series [12] deals with Retinoic acid receptor alpha (Homo sapiens, UniProt P10276). Nature of the series: Activation of Gal-DBD and NHRLBD fused RARalpha (unknown origin) transfected in African green monkey CV-1 cells by luciferase reporter assay. In kind it is cell-based.
Series [13] concerns Mus musculus. Briefly: Antioxidant activity in western diet and CCl4-induced nonalcoholic steatohepatitis C57BL/6 mouse model assessed as increase in glutathione peroxidase level at 20 mg/kg, po administered for 12 weeks starting from week 8 and change in dose for every 5 days. In kind it is functional, organism-based. Conditions: time 4.0 weeks.
The target in series [14] is T1, Bile acid receptor (Mus musculus) (UniProt Q60641).
T1 sequence (whole entry): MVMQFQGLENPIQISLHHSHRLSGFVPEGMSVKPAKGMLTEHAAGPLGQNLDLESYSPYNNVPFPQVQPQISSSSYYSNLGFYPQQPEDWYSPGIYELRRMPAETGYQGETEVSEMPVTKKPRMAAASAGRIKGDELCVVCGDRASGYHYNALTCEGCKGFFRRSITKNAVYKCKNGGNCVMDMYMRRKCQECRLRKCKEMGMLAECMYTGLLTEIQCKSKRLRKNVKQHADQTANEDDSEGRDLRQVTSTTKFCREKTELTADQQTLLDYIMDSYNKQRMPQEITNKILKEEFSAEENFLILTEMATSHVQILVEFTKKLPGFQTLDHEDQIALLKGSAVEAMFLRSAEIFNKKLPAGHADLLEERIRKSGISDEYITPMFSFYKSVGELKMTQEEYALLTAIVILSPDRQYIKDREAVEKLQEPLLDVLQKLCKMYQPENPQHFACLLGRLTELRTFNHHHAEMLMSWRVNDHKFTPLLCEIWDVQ
Nature of the series: In vivo activation of FXR pathway in western diet and CCl4-induced nonalcoholic steatohepatitis C57BL/6 mouse model assessed as upregulation of OST-beta gene expression in ileum at 20 mg/kg, po administered for 12 weeks starting from week 8 and change in dose for every 5 days by RT-PCR analysis. It counts as functional, organism-based. The settings on record: time 4.0 weeks.

Series [15] deals with Mus musculus. Briefly: Anti-NASH activity in western diet and CCl4-induced nonalcoholic steatohepatitis C57BL/6 mouse assessed as reduction in IL-1beta level at 20 mg/kg, po administered for 12 weeks starting from week 8 and change in dose for every 5 days by ELISA. Conditions: time 4.0 weeks. It counts as functional, organism-based.
Series [16] can be described thus: Drug concentration in C57BL/6 mouse ileum at 20 mg/kg, po administered for 5 days and measured after 1 hr post final dose by LC-MS analysis. It counts as ADME, organism-based. The settings on record: time 5 day, read-out: Ct.
For series [17], the target named is T2, Peroxisome proliferator-activated receptor alpha (Homo sapiens, UniProt Q07869).
T2 sequence (Q07869 whole entry): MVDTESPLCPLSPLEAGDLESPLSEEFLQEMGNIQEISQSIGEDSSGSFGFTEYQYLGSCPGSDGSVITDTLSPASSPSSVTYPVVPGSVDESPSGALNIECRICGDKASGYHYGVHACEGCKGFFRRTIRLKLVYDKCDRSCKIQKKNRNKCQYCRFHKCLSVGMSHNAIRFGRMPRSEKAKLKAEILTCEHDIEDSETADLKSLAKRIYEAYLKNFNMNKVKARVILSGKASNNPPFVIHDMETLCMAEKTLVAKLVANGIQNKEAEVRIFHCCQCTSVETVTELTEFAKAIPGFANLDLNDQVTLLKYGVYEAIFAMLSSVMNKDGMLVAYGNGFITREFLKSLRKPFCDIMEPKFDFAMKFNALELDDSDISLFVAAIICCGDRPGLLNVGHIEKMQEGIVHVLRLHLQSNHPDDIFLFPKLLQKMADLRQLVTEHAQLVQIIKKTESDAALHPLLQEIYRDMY
Nature of the series: Inhibition of pBIND-PPARalpha (unknown origin) transfected in HepG2 cells incubated for 18 hrs in presence of […] by dual luciferase reporter assay. In kind it is cell-based.

In series [18] the target is T1, Bile acid receptor (Mus musculus). Nature of the series: Activation of FXR in C57BL/6 mouse ileum assessed as upregulation of FGF15 gene expression in ileum at 20 mg/kg, po administered for 5 days and measured after 1 hr post final dose by RT-PCR analysis. In kind it is organism-based. Conditions: filed as activator, time 5.0 day.
In series [19] the target is Retinoic acid receptor gamma (Homo sapiens, UniProt P13631). Briefly: Activation of Gal-DBD and NHRLBD fused RARgamma (unknown origin) transfected in African green monkey CV-1 cells by luciferase reporter assay. It counts as cell-based.
A short description of series [20]: Subacute toxicity in ICR mouse assessed as abnormal behaviour at 500 mg/kg/day, po administered for 14 days. Conditions: in vivo, 336 h, time 14 day. It counts as organism-based.
A short description of series [21]: Subacute toxicity in ICR mouse assessed as changes in food intake at 500 mg/kg/day, po administered for 14 days. It counts as organism-based. The settings on record: in vivo, 336 h, time 14 day.
Series [22] has as its target Mineralocorticoid receptor (Homo sapiens, UniProt P08235). Briefly: Activation of Gal-DBD and NHRLBD fused MR (unknown origin) transfected in African green monkey CV-1 cells by luciferase reporter assay. It counts as cell-based.

Retinoic acid receptor alpha, sequence (P10276 whole entry, the tested form may be a part): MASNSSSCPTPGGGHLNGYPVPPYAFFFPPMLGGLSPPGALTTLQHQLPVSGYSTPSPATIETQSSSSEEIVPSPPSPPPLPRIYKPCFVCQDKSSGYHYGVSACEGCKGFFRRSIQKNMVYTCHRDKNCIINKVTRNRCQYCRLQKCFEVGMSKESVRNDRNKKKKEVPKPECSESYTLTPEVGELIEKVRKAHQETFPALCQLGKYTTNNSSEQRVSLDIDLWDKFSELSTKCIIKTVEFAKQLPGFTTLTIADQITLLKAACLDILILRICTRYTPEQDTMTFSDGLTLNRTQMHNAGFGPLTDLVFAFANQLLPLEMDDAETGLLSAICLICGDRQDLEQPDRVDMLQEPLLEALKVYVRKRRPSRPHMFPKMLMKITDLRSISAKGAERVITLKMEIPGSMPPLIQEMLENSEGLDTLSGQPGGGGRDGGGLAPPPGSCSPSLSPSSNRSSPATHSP
Mineralocorticoid receptor, sequence (P08235 whole entry, the tested form may be a part): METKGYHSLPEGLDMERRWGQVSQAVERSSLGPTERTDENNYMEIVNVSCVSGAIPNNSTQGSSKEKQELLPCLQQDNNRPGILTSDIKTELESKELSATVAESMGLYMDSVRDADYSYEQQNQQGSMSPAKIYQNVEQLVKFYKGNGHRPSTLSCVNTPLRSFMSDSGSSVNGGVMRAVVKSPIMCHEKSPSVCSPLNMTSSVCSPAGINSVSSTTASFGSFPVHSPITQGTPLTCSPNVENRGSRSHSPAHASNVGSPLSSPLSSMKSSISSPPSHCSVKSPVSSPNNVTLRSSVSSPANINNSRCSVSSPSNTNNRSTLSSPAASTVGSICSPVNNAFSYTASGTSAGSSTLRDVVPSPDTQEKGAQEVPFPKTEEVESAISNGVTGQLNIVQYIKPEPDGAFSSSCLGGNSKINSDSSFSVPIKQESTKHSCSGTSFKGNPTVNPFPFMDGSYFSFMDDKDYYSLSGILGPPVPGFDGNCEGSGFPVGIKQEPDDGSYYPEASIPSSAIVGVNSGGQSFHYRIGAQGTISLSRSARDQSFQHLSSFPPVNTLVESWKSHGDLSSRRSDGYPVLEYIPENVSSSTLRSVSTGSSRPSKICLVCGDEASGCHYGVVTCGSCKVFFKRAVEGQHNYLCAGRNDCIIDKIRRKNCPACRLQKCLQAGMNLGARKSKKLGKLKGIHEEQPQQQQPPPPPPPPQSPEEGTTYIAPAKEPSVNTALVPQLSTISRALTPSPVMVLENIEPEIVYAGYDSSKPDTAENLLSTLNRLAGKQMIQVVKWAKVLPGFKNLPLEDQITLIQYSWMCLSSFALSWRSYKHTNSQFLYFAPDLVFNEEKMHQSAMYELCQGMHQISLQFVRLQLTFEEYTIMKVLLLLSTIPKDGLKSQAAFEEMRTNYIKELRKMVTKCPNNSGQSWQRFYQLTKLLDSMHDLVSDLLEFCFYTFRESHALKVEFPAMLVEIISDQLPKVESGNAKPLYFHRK
Retinoic acid receptor gamma, sequence (P13631 whole entry, the tested form may be a part): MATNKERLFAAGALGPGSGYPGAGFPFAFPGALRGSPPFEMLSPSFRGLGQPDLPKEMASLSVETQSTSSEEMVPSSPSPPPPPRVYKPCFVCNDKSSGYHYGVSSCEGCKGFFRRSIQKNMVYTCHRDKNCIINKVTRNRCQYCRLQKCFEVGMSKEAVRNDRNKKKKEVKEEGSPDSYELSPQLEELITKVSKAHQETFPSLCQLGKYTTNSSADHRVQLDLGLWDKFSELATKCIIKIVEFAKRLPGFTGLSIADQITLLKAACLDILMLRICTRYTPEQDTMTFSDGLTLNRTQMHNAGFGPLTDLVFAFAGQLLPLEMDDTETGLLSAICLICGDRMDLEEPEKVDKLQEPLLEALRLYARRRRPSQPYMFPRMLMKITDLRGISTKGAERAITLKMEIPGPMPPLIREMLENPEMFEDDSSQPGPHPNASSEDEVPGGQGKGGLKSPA
Estrogen receptor, sequence (P03372 whole entry, the tested form may be a part): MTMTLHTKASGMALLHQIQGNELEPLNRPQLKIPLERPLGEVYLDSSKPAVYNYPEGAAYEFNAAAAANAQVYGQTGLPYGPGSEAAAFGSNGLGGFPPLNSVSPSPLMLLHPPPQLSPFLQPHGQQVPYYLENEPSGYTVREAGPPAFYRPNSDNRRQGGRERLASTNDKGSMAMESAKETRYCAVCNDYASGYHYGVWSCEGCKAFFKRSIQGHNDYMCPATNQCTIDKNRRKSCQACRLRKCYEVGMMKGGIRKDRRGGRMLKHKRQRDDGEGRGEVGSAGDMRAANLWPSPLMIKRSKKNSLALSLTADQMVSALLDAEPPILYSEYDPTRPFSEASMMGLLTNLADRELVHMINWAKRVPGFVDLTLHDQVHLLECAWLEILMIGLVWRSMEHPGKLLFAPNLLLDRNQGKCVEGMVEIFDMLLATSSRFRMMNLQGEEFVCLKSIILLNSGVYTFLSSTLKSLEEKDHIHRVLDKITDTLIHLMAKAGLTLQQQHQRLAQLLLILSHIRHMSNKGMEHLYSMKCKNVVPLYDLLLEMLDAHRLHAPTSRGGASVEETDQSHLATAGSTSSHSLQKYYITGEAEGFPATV
Fatty acid-binding protein, adipocyte, sequence (P15090 whole entry): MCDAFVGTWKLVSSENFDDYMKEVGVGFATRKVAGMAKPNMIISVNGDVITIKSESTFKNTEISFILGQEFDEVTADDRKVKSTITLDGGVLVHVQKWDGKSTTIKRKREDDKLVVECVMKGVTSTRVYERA
Free fatty acid receptor 1, sequence (O14842 whole entry): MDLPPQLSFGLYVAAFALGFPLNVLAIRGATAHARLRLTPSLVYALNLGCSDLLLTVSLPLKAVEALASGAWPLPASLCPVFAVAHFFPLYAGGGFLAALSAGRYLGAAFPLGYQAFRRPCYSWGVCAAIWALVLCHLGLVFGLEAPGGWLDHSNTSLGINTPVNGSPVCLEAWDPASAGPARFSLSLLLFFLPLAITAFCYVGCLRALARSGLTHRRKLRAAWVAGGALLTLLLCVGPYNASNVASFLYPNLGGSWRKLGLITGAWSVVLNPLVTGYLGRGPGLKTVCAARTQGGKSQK

In general, EC50 refers to the concentration giving half of the maximal effect. By IC50 is commonly meant the point on the concentration scale where inhibition reaches its midpoint. With `O=C(O)C1(c2cccc(-c3ccc(OCc4c(-c5c(Cl)cccc5Cl)noc4C4CC4)cc3)c2)CC1`, the Activity entry in series [1], in series [2], in series [10], in [11], in series [20] and in series [21] was “Non-Toxic” throughout. For the same molecule, the outcome (in the series on Mus musculus [3]; in the series on Mus musculus [13]; in series [14]; in the series with Mus musculus [15]; in series [18]) was Active. For the same molecule, the EC50 (in series [4]; in [6]; at Estrogen receptor; in series [12]; in [19]; in series [22]) was more than 10 µM in each case. Moreover, the IC50 in series [5] is more than 10 µM; in [8] it was 6.3 µM; in series [17], more than 10 µM. Besides, the values for the remaining at 1 h in [7] and in [9] were 71% and 71.6%, respectively. In addition, the concentration at 120 h in [16] was 996 ng/g.
